The values that follow come from publication PMC5320394, “Development of a Novel Formulation That Improves Preclinical Bioavailability of Tenofovir Disoproxil Fumarate” (Journal of Pharmaceutical Sciences, 2017).

Like-named read-outs stand apart in the source and are kept apart here.

The subject of data set [1] is rat intestinal homogenates. Further details: method as in PMID 12124311. Conditions: cited from earlier work.
In data set [2] the test system is rat intestinal S9. Description: TDF stability in rat intestinal S9 fraction and effect of inhibitors. Conditions: for inhibition of TDF hydrolysis: rat S9.
Protocol: (§1) TDF solutions were prepared at 10 μM in rat or human intestinal S9 fraction (0.5 mg protein/mL). Inhibitors were added to the solutions. […] Control samples included buffer, human S9, or rat S9 solutions with only TDF. Samples were incubated at 37°C for 0, 5, 10, 15, 20, and 30 min and then analyzed by LC-MS/MS for TDF, TFV-ME, TFV, and PP (to quantify stability).
(§2) Samples from S9 incubations were analyzed using the LC-MS/MS conditions described earlier for Caco-2 samples.
For data set [3], the system named is human intestinal S9. Description: TDF stability in human intestinal S9 fraction and effect of inhibitors. The note with it: for inhibition of TDF hydrolysis: human S9.
Protocol: as §1, §2
The subject of data set [4] is porcine pancrelipase (PL). Briefly: Hydrolysis of TDF by PL and effect of enzyme inhibitors. The format is biochemical. Conditions: PP or MP together or alone, FaSSIF with PL.
Protocol: TDF solutions were prepared at 10 μM and incubated in triplicate at 37°C in FaSSIF containing PL at 480 U/mL with and without inhibitors. Inhibitors were added at 10% vol/vol for the oils (sesame, olive, safflower, soybean, and coconut); at 10 mM for PP, MP, and EM1; and at 0.05 mM/0.002 mM for EDTA/PMSF. Controls consisted of TDF in transport media or FaSSIF with and without PL. Samples were incubated at 37°C and quenched with acetonitrile at 10, 15, 20, and 30 min. For each time point, the % TDF or % TFV-ME remaining was determined by LC-MS/MS as described below.
Data set [5] has as its system Caco-2 cell monolayers. The format is in vitro ADME. Conditions: 1 mM BNPP, 1 mM PP, 0.05% wt/vol EM1, 0.5 mg/mL TPGS, 10 μM CsA, 2 μM GF918.
Protocol: Caco-2 monolayer experiments were performed as previously described[30] with a few modifications. […] Following incubation, the media was replaced to remove dead cells and prevent the formation of multiple layers of cells settling on the filter. Media was then changed every 2-3 days and plates were used in experiments after a total of 21 days from initial seeding. Monolayer integrity was checked before and after each experiment using a Millicell-ERS instrument to determine the TEER across the monolayer and to ensure that there was no substantial change in monolayer integrity throughout the duration of an experiment. On the day of the experiment, the TEER was assessed and the media in each plate was replaced with warm HBSS (pH 7) and allowed to equilibrate (37°C, 30 min). Apical (for apical-to-basolateral [A-to-B] transport) chambers were replaced with HBSS containing 10 μM (final concentration, n = 3 reps) aqueous solution of drug and inhibitors. Samples were taken from both apical and basolateral compartments at 120 min and diluted into an appropriate solvent to allow drug quantitation using LC-MS/MS.
Samples from permeability assays were also diluted into Mobile Phase A prior to analysis.
Mobile Phase A was 3/1/96 acetonitrile/acetic acid/water and Mobile Phase B was 96/1/3 acetonitrile/acetic acid/water. Rather than isocratic elution, a gradient program was used. The gradient program held at 0% B for 1 min, ramped to 98% B from 1 to 2 min, held at 98% B from 2 to 3 min, and then returned to initial conditions. Q1/Q3 ions for TFV-ME and TDF were 404.0/270.0 and 520.1/270.0, respectively.
Data set [6] relates to porcine pancrelipase (PL). Description: Stability in SGF and FaSSIF with and without PL. It is filed as in vitro ADME. Conditions: 37°C. The procedure:
Samples were incubated at 37°C and quenched with acetonitrile at 0, 15, 30, 60, 90, and 120 min. For each time point, the % TDF or % TFV-ME remaining was determined by LC-MS/MS as described below.

Data set [7] relates to MDCK-MDR1 cells (P-gp). Briefly: MDCK-MDR1 efflux studies. It is filed as in vitro ADME, canine. Conditions: for Papp, A to B / Papp, B to A: (SEM). The method, then:
MDCK-MDR1 cells (Netherlands Cancer Institute) were seeded at a density of 3 × 10^5 cells per well onto microporous polycarbonate membranes in 12-well Costar Transwell plates (Corning, Inc.). The cells were incubated for 3 days during which time they formed confluent monolayers. Monolayer integrity was checked using a Millicell-ERS instrument (Millipore) to determine the transepithelial electrical resistance (TEER) across the monolayer. […] […] Competency of the P-gp efflux transporter was confirmed by assay of propranolol (nonsubstrate) and amprenavir (substrate). Cell monolayers were incubated in triplicate with shaking (160 rpm) at 37°C for 2 h. Samples were removed from the apical and basolateral compartments after incubation and assayed for test compound concentrations by LC-MS/MS.
Conditions were similar to those used for Caco-2 analyses. Differences included the use of a Phenomenex Synergi Hydro-RP column (4 μm, 2.1 × 50 mm) at 60°C, mobile phases of aqueous 0.2% formic acid (A) and neat methanol (B), and a rapid 0.9 min gradient from 0% to 95% B.

A short description of data set [8]: in vivo. The note with it: rat, given IV; for AUC: male, Sprague-Dawley, plasma, iv, AUC0-8h. Further details: species or system Sprague-Dawley rats.
Data set [9] relates to lymphocytes. Further details: method as in PMID 9517941. Conditions: cited from earlier work.
Where [10] appears, read: rat S9, 10 μM TDF, 37°C, 10 μM BNPP, 100 μM PMSF, 0.05% wt/vol EM1, 1 mM PP, 1 mM MP, 1 mM EP.
Where [11] appears, read: human S9, 10 μM TDF, 37°C, 10 μM BNPP, 100 μM PMSF, 0.05% wt/vol EM1, 1 mM PP, 1 mM MP, 1 mM EP.

As to `CCCOC(=O)c1ccc(O)cc1` [PP, propylparaben], the “inhibition of TDF metabolism” value in [1] was 94.5%. The “TDF Rate Constant with inhibitor” value was -0.196 min⁻¹ in [2] (setting [10]) and -0.035 min⁻¹ in data set [3] (setting [11]). Also, the “protection of TDF against PL hydrolysis” value in data set [4] is “did not protect TDF”.

In the case of `COC(=O)c1ccc(O)cc1` [MP, methylparaben], the figures for the “TDF Rate Constant with inhibitor” value in data set [2] (setting [10]) and in [3] (setting [11]) were -1.297 min⁻¹ and -1.065 min⁻¹, respectively. Besides, the “inhibition of TDF hydrolysis” value in [2] (100 μM PMSF, 1 mM EP, 1 mM MP) was “did not show any substantial inhibition”; in data set [3] (100 μM PMSF, 1 mM EP, 1 mM MP) it was “did not show any substantial inhibition”. Besides, the “protection of TDF against PL hydrolysis” value in data set [4] was “did not protect TDF”.

With `O=[N+]([O-])c1ccc(OP(=O)(O)Oc2ccc([N+](=O)[O-])cc2)cc1` [BNPP, Bis-para-nitrophenylphosphate], in [5] (Caco-2, versus no inhibitor), the “Fold Increase, TDF (A to B transport)” value is recorded as 6.2 fold and the “Fold Increase, TFV Family (A to B transport)” value turned out to be 3.1 fold. Also, in data set [5] (Caco-2 A to B, 10 μM, 120 min), the “% Measured Basolateral, TDF (median), with inhibitor(s)” value is 4.88%; the “% Measured Basolateral, TNF (median), with inhibitor(s)” value is on record as 0.00%; the “% Measured Basolateral, TNF-ME (median), with inhibitor(s)” value is recorded as 0.55%. Besides, the “TDF Rate Constant with inhibitor” value in [2] is -0.016 min⁻¹. For the same compound, the “TDF Rate Constant with inhibitor” value in data set [3] was -0.009 min⁻¹.

With `CCOC(=O)c1ccc(O)cc1` [EP, ethylparaben], the “TDF Rate Constant with inhibitor” value was -1.023 min⁻¹ in data set [2] (setting [10]) and -0.210 min⁻¹ in data set [3] (setting [11]). The “inhibition of TDF hydrolysis” value in data set [2] (100 μM PMSF, 1 mM EP, 1 mM MP) is “did not show any substantial inhibition”; in data set [3] (100 μM PMSF, 1 mM EP, 1 mM MP), “did not show any substantial inhibition”.

As to `CC(C)OC(=O)OCOP(=O)(O)CO[C@H](C)Cn1cnc2c(N)ncnc21` [TFV-ME, tenofovir monophosphonate ester], in data set [6] (10 μM, PL 480 U/mL), the “half-life in FaSSIF with PL” value is 0.633 ± 0.0333 h. In [6] (without PL, up to 120 min, TDF 10 μM), the “stability in SGF and FaSSIF” value is “stable”. In addition, the Efflux ratio in [7] (MDCK-MDR1, 0 μM GF918) is given as 2.1; in data set [7] (MDCK-MDR1, 2 μM GF918) it was 0.9. For the same compound, the “Papp, A to B” value in data set [7] (MDCK-MDR1, 0 μM GF918, 120 min) was 4.1 (0.20) nm/s; in data set [7] (MDCK-MDR1, 2 μM GF918, 120 min), 5.3 (0.61) nm/s. Also, the “Papp, B to A” value in data set [7] (MDCK-MDR1, 0 μM GF918, 120 min) was 8.8 (0.60) nm/s; in data set [7] (MDCK-MDR1, 2 μM GF918, 120 min), 5.0 (0.58) nm/s.

As for `O=S(=O)(F)Cc1ccccc1` [PMSF, phenylmethylsulfonyl fluoride], the “TDF Rate Constant with inhibitor” value is -1.064 min⁻¹ in data set [2] (setting [10]) and -0.185 min⁻¹ in [3] (setting [11]). For the same compound, the “inhibition of TDF hydrolysis” value is listed as “did not show any substantial inhibition” in data set [2] (100 μM PMSF, 1 mM EP, 1 mM MP) and “did not show any substantial inhibition” in [3] (100 μM PMSF, 1 mM EP, 1 mM MP).

For `C[C@H](Cn1cnc2c(N)ncnc21)OCP(=O)(O)O` [TFV, tenofovir], the AUC in data set [8] (read-out: TFV AUC, Mean) came out at 3210 ng·h/mL; in data set [8] (read-out: TFV AUC, Median), 3200 ng·h/mL. Moreover, the “TFV AUC, Median Fold Increase” value in [8] (versus oral TDF Control) is recorded as 2.85 fold. In addition, the figures for the intracellular half-life in data set [9] (activated lymphocytes) and in [9] (resting lymphocytes) were 12 to 15 h and 33 to 50 h, respectively.
